Data reported in patent US9765087B2, “Benzimidazole derivatives” (ENANTA PHARMACEUTICALS, INC., priority 2009, dated 2017).
Like-named read-outs stand apart in the source and are kept apart here.

System: HCV 1b genotype replicon
Test: HCV replicon assay (qRT-PCR or luciferase), genotype 1b
Assay type: cell-based
Settings: Hepatitis C virus
Excerpt: HCV replicon cell lines (kindly provided by R. Bartenschlager) isolated from colonies as described by Lohman et. al. (Lohman et al. (1999) Science 285: 110-113, expressly incorporated by reference in its entirety) and used for all experiments. The HCV replicon has the nucleic acid sequence set forth in EMBL Accession No.: AJ242651, the coding sequence of which is from nucleotides 1801 to 8406.
The coding sequence of the published HCV replicon was synthesized and subsequently assembled in a modified plasmid pBR322 (Promega, Madison, Wis.) using standard molecular biology techniques. One replicon cell line (“SGR 11-7”) stably expresses HCV replicon RNA which consists of (i) the HCV 5′UTR fused to the first 12 amino acids of the capsid protein, (ii) the neomycin phosphotransferase gene (neo), (iii) the IRES from encephalomyocarditis virus (EMCV), and (iv) HCV […] to NSSB genes and the HCV 3′UTR. Another replicon cell line (“Huh-luc/neo-ET”) described by Vrolijk et. al. (Vrolijk et. al. (2003) Journal of Virological Methods 110:201-209, expressly incorporated by reference in its entirety) stably expresses HCV replicon RNA which consists of (i) the HCV 5′UTR fused to the first 12 amino acids of the capsid protein, (ii) the firefly luciferase reporter gene, (iii) the ubiquitin gene, (iv) the neomycin phosphotransferase gene (neo), (v) the IRES from encephalomyocarditis virus (EMCV), and (vi) HCV NS3 to NS5B genes that harbor cell culture adaptive mutations (E1202G, T1280I, K1846T) and the HCV 3′UTR.
These cell lines were maintained at 37° C., 5% CO2, 100% relative humidity in DMEM (Cat#11965-084, Invitrogen), with 10% fetal calf serum (“FCS”, Invitrogen), 1% non-essential amino acids (Invitrogen), 1% of Glutamax (Invitrogen), 1% of 100× penicillin/streptomycin (Cat#15140-122, Invitrogen) and Geneticin (Cat#10131-027, Invitrogen) at 0.75 mg/ml or 0.5 mg/ml for 11-7 and Huh-luc/neo-ET cells, respectively.
EC50 values of single agent compounds and combinations were determined by HCV RNA detection using quantitative RT-PCR, according to the manufacturer's instructions, with a TAQMAN® One-Step RT-PCR Master Mix Reagents Kit (Cat#AB 4309169, Applied Biosystems) on an ABI Model 7500 thermocycler. The TaqMan primers used for detecting and quantifying HCV RNA were obtained from Integrated DNA Technologies. HCV RNA was normalized to GAPDH RNA levels in drug-treated cells, which is detected and quantified using the Human GAPDH Endogenous Control Mix (Applied Biosystems, AB 4310884E). Total cellular RNA is purified from 96-well plates using the RNAqueous 96 kit (Ambion, Cat# AM1812). Chemical agent cytotoxicity is evaluated using an MTS assay according to the manufacturer's directions (Promega).
Since clinical drug resistance often develops in viral infections following single agent therapies, there is a need to assess the additive, antagonistic, or synergistic properties of combination therapies. We used the HCV replicon system to assess the potential use of the compound of the present invention or in combination therapies with Interferon alpha, cyclosporine analogs and inhibitors targeting other HCV proteins. The acute effects of a single or combinations of drugs are studied in the “Huh-luc/neo-ET” replicon with each chemical agent titrated in an X or Y direction in a 6 point two-fold dilution curve centered around the EC50 of each drug. Briefly, replicon cells are seeded at 7,000 cells per well in 90 ul DMEM (without phenol red, Invitrogen Cat.#31053-036) per well with 10% FCS, 1% non-essential amino acids, 1% of Glutamax and 1% of 100× penicillin/streptomycin and incubated overnight at 37° C., 5% CO2, 100% relative humidity. […]

[1] = Table 12, numeric values, read-out: 1b EC50
[2] = Table 11, qRT-PCR or luciferase assay, read-out: Genotype-1b replicon EC50 Range

Question: `COC(=O)N[C@H](C(=O)N1C[C@@H](C)C[C@H]1c1ncc(-c2ccc(C#Cc3ccc4nc([C@@H]5C[C@@]6(CCCO6)CN5C(=O)[C@@H](NC(=O)OC)C(C)C)[nH]c4c3)cc2)[nH]1)C(C)C` [Example 559] was tested. Which EC50 [1] did it give?
Answer: 0.014 nM

Question: `COC(=O)N[C@H](C(=O)N1C[C@@](C)(F)C[C@H]1c1ncc(-c2ccc(C#Cc3ccc4nc([C@@H]5C[C@@]6(CCCO6)CN5C(=O)[C@@H](NC(=O)OC)C(C)C)[nH]c4c3)cc2)[nH]1)C(C)C` [Example 636] was tested. Which EC50 [1] did it give?
Answer: 0.02 nM

Question: `COC(=O)N[C@H](C(=O)N1CCC[C@H]1c1ncc(-c2ccc(C#Cc3ccc4nc([C@@H]5CCCN5C(=O)[C@@H](NC(=O)OC)[C@H](C)O)[nH]c4c3)cc2)[nH]1)C(C)C` [Example 531] was tested. Which EC50 [2] did it give?
Answer: < 1 nM

Question: For `COC(=O)N[C@H](C(=O)N1CCC[C@H]1c1ncc(-c2ccc(C#Cc3ccc4nc([C@@H]5CCCN5C(=O)[C@@H](NC(=O)OC)C(C)C)[nH]c4c3)cc2)[nH]1)C(C)C` [Example 515], which EC50 [2] is on record?
Answer: < 1 nM

Question: For `COC(=O)N[C@@H](C(=O)N1CCC[C@H]1c1nc(-c2ccc(C#Cc3ccc4[nH]c([C@@H]5CCCN5C(=O)[C@H](NC(=O)OC)c5ccccc5)nc4c3)cc2)c[nH]1)c1ccccc1` [Example 2-1], which EC50 [2] is on record?
Answer: < 1 nM

Question: With `COC(=O)N[C@H](C(=O)N1CC2(CC2)C[C@H]1c1ncc(-c2ccc(C#Cc3ccc4nc([C@@H]5CC6(CC6)CN5C(=O)[C@H](NC(=O)OC)c5ccccc5)[nH]c4c3)cc2)[nH]1)C(C)C` [Example 578] as the molecule, how does the EC50 [1] read?
Answer: 0.006 nM

Question: With `COC(=O)N[C@H](C(=O)N1CC2(CC2)C[C@H]1c1nc2cc(C#Cc3ccc(-c4coc([C@@H]5CC6(CC6)CN5C(=O)[C@@H](NC(=O)OC)C(C)C)n4)cc3)ccc2[nH]1)C(C)C` [Example 577] as the molecule, how does the EC50 [1] read?
Answer: 0.16 nM

Question: Which EC50 [2] does the source give for `COC(=O)N[C@H](C(=O)N1CCC[C@H]1c1nc(-c2ccc(C#Cc3ccc4[nH]c([C@@H]5CCCN5C(=O)[C@@H](OC(=O)OC)C(C)C)nc4c3)cc2)c[nH]1)C(C)C` [Example 480] here?
Answer: < 1 nM

Question: Which EC50 [2] does the source give for `COC(=O)N[C@H](C(=O)N1CCC[C@H]1c1ncc(-c2ccc(C#Cc3ccc4nc([C@@H]5CCCN5C(=O)[C@@H](NC(=O)OC)[C@@H](C)O)[nH]c4c3)cc2)[nH]1)[C@@H](C)O` [Example 527] here?
Answer: < 1 nM

Question: How did the EC50 [2] turn out when `COC(=O)N[C@H](C(=O)N1CCC[C@H]1c1nc(-c2ccc(C#Cc3ccc4[nH]c([C@@H]5CCCN5C(=O)[C@@H](NC(=O)OC)C(C)C)nc4c3)cc2)c[nH]1)c1ccccc1` [Example 514] was run?
Answer: < 1 nM

Question: `COC(=O)N[C@H](C(=O)N1C[C@H](C)C[C@H]1c1ncc(-c2ccc(C#Cc3ccc4nc([C@@H]5C[C@@]6(CCCO6)CN5C(=O)[C@@H](NC(=O)OC)C(C)C)[nH]c4c3)cc2)[nH]1)C(C)C` [Example 628] was tested. Which EC50 [1] did it give?
Answer: 0.009 nM

Question: How did the EC50 [2] turn out when `[2H]c1c([2H])c(-c2c[nH]c([C@@H]3CCCN3C(=O)[C@@H](NC(=O)OC)C(C)C)n2)c([2H])c([2H])c1C#Cc1ccc2[nH]c([C@@H]3CCCN3C(=O)[C@@H](NC(=O)OC)C(C)C)nc2c1` [Example 488] was run?
Answer: < 1 nM

Question: With `CC[C@H](C)[C@H](NC(=O)OC)C(=O)N1CCC[C@H]1c1ncc(-c2ccc(C#Cc3ccc4nc([C@@H]5CCCN5C(=O)[C@@H](NC(=O)OC)[C@@H](C)CC)[nH]c4c3)cc2)[nH]1` [Example 526] as the molecule, how does the EC50 [2] read?
Answer: < 1 nM

Question: For `COC(=O)N[C@H](C(=O)N1CCC[C@H]1c1nc(-c2ccc(C#Cc3ccc4[nH]c([C@@H]5CC6(CC6)CN5C(=O)[C@@H](NC(=O)OC)C(C)C)nc4c3)cc2)c[nH]1)C(C)C` [Example 521], which EC50 [2] is on record?
Answer: < 1 nM

Question: Which EC50 [2] does the source give for `COC(=O)N[C@@H](C(=O)N1CCC[C@H]1c1nc(-c2ccc(/C=C/c3ccc4[nH]c([C@@H]5CCCN5C(=O)[C@H](NC(=O)OC)c5ccccc5)nc4c3)cc2)c[nH]1)c1ccccc1` [Example 357] here?
Answer: < 1 nM

Question: With `CCOC(=O)N[C@H](C(=O)N1CCC[C@H]1c1nc2cc(C#Cc3ccc(-c4c[nH]c([C@@H]5CCCN5C(=O)[C@@H](NC(=O)OC)C(C)C)n4)cc3)ccc2[nH]1)C(C)C` [Example 481] as the molecule, how does the EC50 [2] read?
Answer: < 1 nM

Question: Which EC50 [1] does the source give for `COC(=O)N[C@H](C(=O)N1CCC[C@H]1c1ncc(-c2ccc(C#Cc3ccc4nc([C@@H]5C[C@]6(CC(C)=NO6)CN5C(=O)[C@@H](NC(=O)OC)C(C)C)[nH]c4c3)cc2)[nH]1)C(C)C` [Example 554] here?
Answer: 0.028 nM

Question: For `COC(=O)N[C@H](C(=O)N1CCC[C@H]1c1ncc(-c2ccc(C#Cc3ccc4nc([C@@H]5C[C@]6(CCCOC6)CN5C(=O)[C@@H](NC(=O)OC)C(C)C)[nH]c4c3)cc2)[nH]1)C(C)C` [Example 570], which EC50 [1] is on record?
Answer: 0.008 nM

Question: For `COC(=O)N[C@H](C(=O)N1CC2(CC2)C[C@H]1c1nc(-c2ccc(C#Cc3ccc4[nH]c([C@@H]5CCCN5C(=O)[C@@H](NC(=O)OC)C(C)C)nc4c3)cc2)c[nH]1)C(C)C` [Example 523], which EC50 [2] is on record?
Answer: < 1 nM

Question: For `COC(=O)N[C@H](C(=O)N1CCC[C@H]1c1nc(-c2ccc(C#Cc3ccc4[nH]c([C@@H]5CCCN5C(=O)[C@@H](NC(=O)OC)[C@@H](C)OC)nc4c3)cc2)c[nH]1)[C@@H](C)OC` [Example 473], which EC50 [2] is on record?
Answer: < 1 nM

Question: With `COC(=O)N[C@H](C(=O)N1CC2(CC2)C[C@H]1c1nc(-c2ccc(C#Cc3ccc4[nH]c([C@@H]5CC6(CC6)CN5C(=O)[C@@H](NC(=O)OC)C(C)C)nc4c3)cc2)c[nH]1)C(C)C` [Example 525] as the molecule, how does the EC50 [2] read?
Answer: < 1 nM

Question: How did the EC50 [2] turn out when `COC(=O)N[C@@H](C(=O)N1CCC[C@H]1c1cc(-c2ccc(C#Cc3ccc4[nH]c([C@@H]5CCCN5C(=O)[C@H](NC(=O)OC)c5ccccc5)nc4c3)cc2)n[nH]1)c1ccccc1` [Example 445] was run?
Answer: < 1 nM

Question: Which EC50 [2] does the source give for `COC(=O)N[C@H](C(=O)N1CCC[C@H]1c1nc(-c2ccc(C#Cc3ccc4[nH]c([C@@H]5CC(F)(F)CN5C(=O)[C@@H](NC(=O)OC)C(C)C)nc4c3)cc2)c[nH]1)C(C)C` [Example 519] here?
Answer: < 1 nM

Question: Which EC50 [2] does the source give for `COC(=O)N[C@H](C(=O)N1CCC[C@H]1c1nc(-c2ccc(C#Cc3ccc4[nH]c([C@@H]5CCCN5C(=O)[C@@H](NC(=O)OC)[C@@H](C)OC)nc4c3)cc2)c[nH]1)C(C)C` [Example 505] here?
Answer: < 1 nM

Question: How did the EC50 [2] turn out when `COC(=O)N[C@H](C(=O)N1CCC[C@H]1c1nc(-c2ccc(C#Cc3cc4nc([C@@H]5CCCN5C(=O)[C@@H](NC(=O)OC)C(C)C)[nH]c4cc3Cl)cc2)c[nH]1)C(C)C` [Example 485] was run?
Answer: < 1 nM

Question: Which EC50 [2] does the source give for `COC(=O)N[C@@H](C)C(=O)N1CCC[C@H]1c1nc2cc(C#Cc3ccc(-c4c[nH]c([C@@H]5CCCN5C(=O)[C@@H](NC(=O)OC)C(C)C)n4)cc3)ccc2[nH]1` [Example 501] here?
Answer: < 1 nM

Question: Which EC50 [2] does the source give for `COC(=O)N[C@H](C(=O)NCc1nc(-c2ccc(C#Cc3ccc4[nH]c([C@@H]5CCCN5C(=O)[C@@H](NC(=O)OC)C(C)C)nc4c3)cc2)c[nH]1)C(C)C` [Example 479] here?
Answer: < 1 nM

Question: `COC(=O)N[C@H](C(=O)N1CCC[C@H]1c1ncc(-c2ccc(-c3ccc(-c4ccc5nc([C@@H]6CCCN6C(=O)[C@@H](NC(=O)OC)C(C)C)[nH]c5c4)cc3)cc2)[nH]1)C(C)C` [Example 499] was tested. Which EC50 [2] did it give?
Answer: < 1 nM

Question: With `COC(=O)N[C@H](C(=O)N1CC2(CC2)C[C@H]1c1nc(-c2ccc(C#Cc3ccc4[nH]c([C@@H]5CC6(CC6)CN5C(=O)[C@@H](NC(=O)OC)C(C)C)nc4c3)cc2)c[nH]1)C(C)C` [Example 548] as the molecule, how does the EC50 [1] read?
Answer: 0.004 nM

Question: `COC(=O)N[C@H](C(=O)N1CCC[C@H]1c1nc(-c2ccc(C#Cc3ccc4[nH]c([C@@H]5CCCN5C(=O)[C@@H](NC(C)=O)C(C)C)nc4c3)cc2)c[nH]1)C(C)C` [Example 506] was tested. Which EC50 [2] did it give?
Answer: < 1 nM
